Reference: patent publication US20220117958A1, “COMPOSITIONS AND METHODS FOR INHIBITING ACSS2” (THE TRUSTEES OF THE UNIVERSITY OF PENNSYLVANIA, priority 2018, published 2022)
In brackets after ≈: the same amount, converted by molar mass. Several values for one entry are separate records, joined by “and”; a condition that tells them apart may be missing. Equal entries are not always repeated. Where two headings read alike, the source gives them in different places. Marks after values point to notes of the source that are not given here.

Key:
[1] = Turbidity-based aqueous solubility; format: physicochemical; settings: aqueous solution (composition not given), kinetic from dmso stock, read-out: highest soluble concentration
Description: (§1) Table 20 provides results of in vitro and in vivo pharmacokinetics performed for each of the represented compounds.

[2] = Protein binding via Rapid Equilibrium Dialysis - plasma; format: in vitro ADME; settings: Rat (SD) plasma, 2 μM
Description: as §1

[3] = Microsomal stability assay (half-life), human; format: in vitro ADME; settings: Human microsomes, read-out: Microsomal stability T1/2
Description: as §1

[4] = Microsomal stability assay (half-life), mouse; format: in vitro ADME; settings: Mouse (CD1) microsomes, read-out: Microsomal stability T1/2
Description: as §1

[5] = Microsomal stability assay (half-life), rat; format: in vitro ADME; settings: Rat (SD) microsomes, read-out: Microsomal stability T1/2
Description: as §1

[6] = In vivo PK, oral gavage, plasma; design: species or system Rat (SD); settings: for Plasma concentration, mean: Rat (SD), BQL = below quantitation limit (1.00 ng/mL); for Plasma concentration, mean / Plasma concentration, individual animal: PO 5 mg/kg
Description: as §1
(§2) Tables 4 and 5 depict the summary of rat plasma sample concentrations after administration of ADG I-204. FIG. 6 provides a summary of rat plasma and brain concentrations.

[7] = In vivo PK, IV dose, plasma; design: species or system Rat (SD); settings: for Plasma concentration, mean / Plasma concentration, individual animal: IV 1 mg/kg
Description: as §1, §2

[8] = In vivo PK, IV dose, Terminal - brain (brain availability); design: species or system Rat (SD); settings: for Brain concentration, mean / Brain concentration, individual animal: IV 1 mg/kg
Method: Table 3 and FIG. 5 depict the brain availability of ADG I-204, ADG I-205, ADG I-206, and ADG I-207 after IV administration of 1 mg/kg dose.

[9] = system: H3K9ac; assay: Western blot, differentiated CAD cell lysates, H3K9ac levels; format: cell-based; settings: differentiated CAD cells, DMSO = 100.00%
Description: as §1

[10] = In vivo PK, oral gavage, plasma; design: species or system Rat (SD); settings: Rat, PO 5 mg/kg, 24.0 hr; BQL limit 1.00 ng/mL; listed as AUG I-207, 5 mg/kg

O=C(Nc1ccc2nc(-c3cccs3)c(-c3cccs3)nc2c1)NC12CC3CC(CC(C3)C1)C2 [ADG-207, 1-((1S,3s)-adamantan-1-yl)-3-(2,3-di(thiophen-2-yl)quinoxalin-6-yl)urea]
solubility [1]: 5 µM (≈ 2.43 µg/mL) | Protein binding, plasma: % Protein free [2]: 0.9428 % Protein free | half-life at 2 μM [3]: 18.7 min | half-life at 2 μM [4]: 5.5 min | half-life at 2 μM [5]: 5.5 min | Plasma concentration, mean ([6]; 0.25 hr): BQL | Plasma concentration, mean ([6]; 0.5 hr): BQL | Plasma concentration, mean ([6]; 1 hr): BQL | Plasma concentration, mean ([6]; 4 hr): BQL | Plasma concentration, mean ([6]; 8 hr): BQL | Plasma concentration, mean ([6]; 24 hr): BQL | Plasma concentration, individual animal ([6]; Rat, 0.250 hr, BQL limit 1.00 ng/mL): BQL | Plasma concentration, individual animal ([6]; Rat, 0.500 hr, BQL limit 1.00 ng/mL): BQL | Plasma concentration, individual animal ([6]; Rat, 1.00 hr, BQL limit 1.00 ng/mL): BQL | Plasma concentration, individual animal ([6]; Rat, 4.00 hr, BQL limit 1.00 ng/mL): BQL | Plasma concentration, individual animal ([6]; Rat, 8.00 hr, BQL limit 1.00 ng/mL): BQL | concentration at 24 h ([6]; SD, rat, plasma, po, 5 mg/kg, Rat, 24.0 hr, BQL limit 1.00 ng/mL, read-out: Plasma concentration, individual animal): 1.18 ng/mL | Plasma concentration, mean ([7]; Rat (SD), 0.083 hr, terminal, listed as ADG I-207, 1 mg/kg): 1660*** ng/mL | Plasma concentration, mean ([7]; Rat (SD), 1 hr, terminal, listed as ADG I-207, 1 mg/kg): 55 ng/mL | Plasma concentration, mean ([7]; Rat (SD), 4 hr, terminal, listed as ADG I-207, 1 mg/kg): 1 ng/mL | Plasma concentration, mean ([7]; Rat (SD), 8 hr, terminal, listed as ADG I-207, 1 mg/kg): 1 ng/mL | Plasma concentration, mean ([7]; Rat (SD), 24 hr, terminal, BQL limit 1.00 ng/mL (ADG I-205: 2.00 ng/mL)): BQL | Plasma concentration, individual animal ([7]; Rat, 0.0830 hr, terminal, third animal received only 70% of the test article, listed as ADG I-207, 1 mg/kg): 1640 ng/mL and 2230 ng/mL and 1110 ng/mL | Plasma concentration, individual animal ([7]; Rat, 0.500 hr, not terminal (animals 4, 5 and 6), listed as ADG I-207, 1 mg/kg): 1560** ng/mL and 93.3 ng/mL and 170 ng/mL | Plasma concentration, individual animal ([7]; Rat, 1.00 hr, terminal, listed as ADG I-207, 1 mg/kg): 70.3 ng/mL and 27.3 ng/mL and 65.8 ng/mL | Plasma concentration, individual animal ([7]; Rat, 4.00 hr, terminal, BQL limit 1.00 ng/mL (ADG I-205: 2.00 ng/mL), listed as ADG I-207, 1 mg/kg): BQL | Plasma concentration, individual animal ([7]; Rat, 8.00 hr, terminal, BQL limit 1.00 ng/mL (ADG I-205: 2.00 ng/mL), listed as ADG I-207, 1 mg/kg): BQL and 1.09 ng/mL | Plasma concentration, individual animal ([7]; Rat, 24.0 hr, terminal, BQL limit 1.00 ng/mL (ADG I-205: 2.00 ng/mL)): BQL | concentration at 0.083 h ([7]; SD, rat, plasma, iv, 1 mg/kg, Rat (SD), 0.083 hr, terminal, read-out: Plasma concentration, mean): 1660 ng/mL | concentration at 0.5 h ([7]; SD, rat, plasma, iv, 1 mg/kg, Rat (SD), 0.500 hr, not a terminal time point (animals 4, 5 and 6)): 608 ng/mL | concentration at 1 h ([7]; SD, rat, plasma, iv, 1 mg/kg, Rat (SD), 1 hr, terminal, read-out: Plasma concentration, mean): 54.5 ng/mL | concentration at 4 h ([7]; SD, rat, plasma, iv, 1 mg/kg, Rat (SD), 4 hr, terminal, read-out: Plasma concentration, mean): 1.37 ng/mL | concentration at 8 h ([7]; SD, rat, plasma, iv, 1 mg/kg, Rat (SD), 8 hr, terminal, read-out: Plasma concentration, mean): 1.05 ng/mL | concentration at 4 h ([7]; SD, rat, plasma, iv, 1 mg/kg, Rat, 4.00 hr, terminal, BQL limit 1.00 ng/mL (ADG I-205: 2.00 ng/mL), read-out: Plasma concentration, individual animal): 1.37 ng/mL | concentration at 8 h ([7]; SD, rat, plasma, iv, 1 mg/kg, Rat, 8.00 hr, terminal, BQL limit 1.00 ng/mL (ADG I-205: 2.00 ng/mL), read-out: Plasma concentration, individual animal): 1 ng/mL | Brain concentration, mean ([8]; Rat (SD), 1 hr, listed as ADG I-207, 1 mg/kg): 51 ng/g | Brain concentration, mean ([8]; Rat (SD), 4 hr, BQL limit 10.0 ng/g (204, 206), 20.0 ng/g (205, 207)): BQL | Brain concentration, mean ([8]; Rat (SD), 8 hr, BQL limit 10.0 ng/g (204, 206), 20.0 ng/g (205, 207)): BQL | Brain concentration, mean ([8]; Rat (SD), 24 hr, BQL limit 10.0 ng/g (204, 206), 20.0 ng/g (205, 207)): BQL | Brain concentration, individual animal ([8]; Rat, 0.0830 hr, third animal received only 70% of the test article, listed as ADG I-207, 1 mg/kg): 204 ng/g and 253 ng/g and 119*** ng/g | Brain concentration, individual animal ([8]; Rat, 1.00 hr, listed as ADG I-207, 1 mg/kg): 39.8 ng/g and 58.9 ng/g | Brain concentration, individual animal ([8]; Rat, 4.00 hr, BQL limit 10.0 ng/g (204, 206), 20.0 ng/g (205, 207)): BQL | Brain concentration, individual animal ([8]; Rat, 8.00 hr, BQL limit 10.0 ng/g (204, 206), 20.0 ng/g (205, 207)): BQL | Brain concentration, individual animal ([8]; Rat, 24.0 hr, BQL limit 10.0 ng/g (204, 206), 20.0 ng/g (205, 207)): BQL | concentration at 0.083 h ([8]; SD, rat, brain, iv, 1 mg/kg, Rat (SD), 0.083 hr): 192 ng/g | concentration at 1 h ([8]; SD, rat, brain, iv, 1 mg/kg, Rat (SD), 1 hr, read-out: Brain concentration, mean): 50.8 ng/g | concentration at 1 h ([8]; SD, rat, brain, iv, 1 mg/kg, Rat, 1.00 hr, read-out: Brain concentration, individual animal): 53.6 ng/g | H3K9ac levels normalized to H3 and DMSO control ([9]; 1 uM): 57.45% | H3K9ac levels normalized to H3 and DMSO control ([9]; 5 uM): 63.69% | H3K9ac levels normalized to H3 and DMSO control ([9]; 10 uM): 72.97% | H3K9ac levels normalized to H3 and DMSO control ([9]; 20 uM): 70.92% | H3K9ac levels normalized to H3 and DMSO control ([9]; 50 uM): 116.85% | H3K9ac levels normalized to H3 and DMSO control ([9]; 100 uM): 107.80% | Plasma concentration, individual animal [10]: BQL
